US7632817B2, “Peptide decoys for the preparation of medicaments intended for the prevention or treatment of autoimmune pathologies or disorders linked to the appearance of antibodies directed against exogenous proteins” (Centre National de la Recherche Scientifique, priority 2001, dated 2009)
Where no end group is shown, it is not given here.

Legend:
[1] = system: 2C11 antibody; assay: Bethesda functional coagulation test: neutralization of the inhibiting activity of 2C11 by peptides; type: biochemical, human; settings: for neutralization of the inhibiting activity of 2C11 (in words): 2C11 3.5 nM
Description: This functional test (Kasper, C. K. & Pool, J. G. (1975) Letter: Measurement of mild factor VIII inhibitors in Bethesda units, Thromb Diath Haemorrh. 34, 875-6) consists of measuring the time necessary for a mixture composed of different coagulation factors (FIXa, FVIII, phospholipides, calcium etc.) in order to coagulate completely. The inhibiting effect of an antibody is characterized in such a test by an extension of the coagulation time, the inhibiting ability of the antibody becomes greater as the extension of the coagulation time increases. The inhibiting character of an antibody is expressed in Bethesda units, which corresponds to the reciprocal concentration of antibodies in order to neutralize 50% of the coagulant activity of the FVIII. In contrast, the neutralizing effect of the peptides is translated by a return to the initial coagulation time obtained in the absence of inhibitor.
The functional test followed is derived from the abovementioned test described by Kasper. The anti-FVIII monoclonal antibodies are diluted in an 0.05 M imidazole buffer, pH 7.3. An equal volume of this preparation (250 μl) with normal plasma buffered in imidazole (0.1 M, pH 7.4) are mixed and incubated for 2 hours at 37° C. Similarly, normal plasma buffered in imidazole is mixed with a non-specific antibody which constitutes the control. The inhibiting activity of an antibody is read from a semi-logarithmic graph representing the correlation between the residual activity of the FVIII and the inhibiting activity.
This mixture is then treated as above.
Firstly, the Inventors evaluated in a functional coagulation test (Bethesda test) the ability of peptide 107 to restore the procoagulant activity of FVIII in the presence of 2C11. FIG. 2 depicts the dose-dependent neutralization of the inhibiting activity of 2C11 by peptide 107. […] However, higher peptide concentrations are necessary in order to achieve an effectiveness similar to that of peptide 107 (data not shown).
FIG. 2 represents the evolution of the activity of factor VIII, evaluated by the Bethesda test, in the presence of 3.5 nM of 2C11 antibody as a function of peptide concentration. The 2C11 antibody was incubated overnight at 4° C. in the presence of a control peptide or peptide 107 (SCHAWSNRRTCR) (SEQ ID NO: 10) in variable concentration. The factor VIII was then incubated for 2 hours at 37° C. with these peptide-antibody mixtures or with peptide 107 alone, then its residual activity was measured with a coagulometer, in one stage.

[2] = system: 2C11 antibody (binding to factor VIII); assay: ELISA: inhibition of binding of 2C11 antibody to immobilized FVIII by soluble peptides; set-up: species or system human
Procedure: The FVIII is immobilized on the ON plate at 4° C. In parallel, the inhibitor antibody is preincubated with its epitope peptide(s) in the ON range at 4° C. in 0.1% PBS-T-2% milk. After saturation for 1 hour with 0.1% PBS-T-2% milk, the Ab-peptide mixtures are incubated with the immobilized FVIII for 2 hours at 37° C. Between each of these incubations, 3 washings with 0.1% PBS-T are carried out except after the saturation. Detection of the FVIII-Ab complex is achieved by a mouse or human anti-IgG coupled to peroxidase diluted to 1:3000 incubated for 1 hour at 37° C. After 5 washings with 0.1% PBS-T, the peroxidase substrate (OPD) is added. The reaction takes place for 30 minutes in the dark then measurement of the absorbance is carried out at 450 nm. After stopping the reaction by the addition of H2SO4 4N, a new measurement is carried out at 490 nm.
The blocking activity of the decoys can be verified in vitro in an ELISA test. […] The neutralizing ability of the decoy can be confirmed in a functional test such as the Bethesda Test (method of Kasper, [Kasper et al., 1975, Thromb. Diath. Haemorrh. 34, 875-6]).
The Inventors studied the ability of these soluble peptides to inhibit the binding of the 2C11 antibody to factor VIII in an ELISA test in vitro in the following manner: immobilization of FVIII, pre-incubation of 2C11 with the soluble peptides in the range (200 μM, 20 μM, 2 μM, 200 nM, 20 nM, 2 nM) overnight at 4° C., then incubation of this premixture on the FVIII, then development of the 2C11 antibody. The results obtained are indicated hereafter.

[3] = system: factor VIII; assay: Bethesda test: effect on procoagulant activity of factor VIII; type: biochemical, human; settings: no antibody
Description: This functional test (Kasper, C. K. & Pool, J. G. (1975) Letter: Measurement of mild factor VIII inhibitors in Bethesda units, Thromb Diath Haemorrh. 34, 875-6) consists of measuring the time necessary for a mixture composed of different coagulation factors (FIXa, FVIII, phospholipides, calcium etc.) in order to coagulate completely. The inhibiting effect of an antibody is characterized in such a test by an extension of the coagulation time, the inhibiting ability of the antibody becomes greater as the extension of the coagulation time increases. […]
The functional test followed is derived from the abovementioned test described by Kasper. […] The inhibiting activity of an antibody is read from a semi-logarithmic graph representing the correlation between the residual activity of the FVIII and the inhibiting activity.
FIG. 1 represents the effect of the 2C11 antibody on the activity of factor VIII evaluated by the Bethesda test. Factor VIII was incubated in the presence of 3.5 nM of 2C11 antibody for 2 hours at 37° C., the residual activity of factor VIII was then measured with a coagulometer, in one stage.
FIG. 2 represents the evolution of the activity of factor VIII, evaluated by the Bethesda test, in the presence of 3.5 nM of 2C11 antibody as a function of peptide concentration. […]

[4] = system: 2C11 antibody; assay: In vivo neutralization of 2C11 in mice deficient in FVIII given human FVIII; set-up: species or system mouse
Procedure: Secondly, the neutralization properties of peptide 107 were studied in vivo, using a mouse model deficient in FVIII. […] Having determined this, 2C11 antibody ([…]) incubated alone, in the presence of peptide 107, or a control peptide (650 μM and 700 μM, respectively) was injected into the tail vein of three groups of mice respectively. Thirty minutes later, the FVIII plasma count of these mice was reconstituted by the injection of 0.5 UI of human FVIII and after fifteen minutes the plasma procoagulant activity was measured.
The 2C11 antibody (16.5 nM) or a mixture containing the 2C11 antibody (16.5 nM) and peptide 107 (650 μM) or a control peptide (700 μM) was injected into the tail vein of a “knock out” mouse, deficient in factor VIII, at a rate of 2.5 μg of 2C11 antibody, 1 mg of peptide 107 and 1 mg of control peptide. After 30 minutes, 0.5 UI of human factor VIII was injected and the plasma procoagulant activity was then measured by a chromogenic test 15 minutes later.
The percentage of residual activity of factor VIII is represented on the Y-axis. Bar A represents the effect of the injection of factor VIII without prior injection of antibodies (100% of residual activity). Bar B represents the effect of the injection of the 2C11 antibody alone prior to the injection of factor VIII. […]

[5] = system: FVIII inhibitors in serums of hemophilia patients; assay: Reactivity of serums of hemophilia patients with inhibitors with peptide 107; type: binding, human; settings: out of 12 serums of hemophilia patients with inhibitors; preliminary study
Description: Thirdly, the Inventors looked at whether the neutralizing properties of peptide 107 vis-à-vis 2C11 could also be applied to other serums of hemophilia patients with inhibitors.

[6] = peptide concentration 0.002 (2 nM)
[7] = peptide concentration 0.02 (20 nM)
[8] = peptide concentration 20 (range: 20 μM)
[9] = peptide concentration 200 (range: 200 μM), pre-incubation overnight at 4° C.

Sequence	neutralization of the inhibiting activity of 2C11 (in words) [1]	% inhibition of 2C11 binding to FVIII [2, 6] [%]	% inhibition of 2C11 binding to FVIII [2, 7] [%]	% inhibition of 2C11 binding to FVIII ([2]; peptide concentration 2 (2 μM)) [%]	% inhibition of 2C11 binding to FVIII [2, 8] [%]	% inhibition of 2C11 binding to FVIII [2, 9] [%]	effect of peptide incubated with FVIII alone on procoagulant activity of FVIII [3]	procoagulant activity of the FVIII maintained ([4]; 2C11 16.7 nM + peptide 650 μM injected in tail vein, 0.5 UI human FVIII after 30 min, measured 15 min later) [%]	neutralizing effect on 2C11 in vivo (in words) ([4]; FVIII-deficient mice, peptide 107 650 μM, control peptide 700 μM)	IC50 ([1]; 2C11 concentration 3.5 nM) [µM]	peptide concentration for total neutralization of 2C11 inhibiting effect ([1]; 2C11 concentration 3.5 nM) [µM]	number of patient serums reacting with the peptide [5]	inhibition of the 2C11 Ab/FVIII bond (in words) [2]
CMKWSNRSSRWC (Ac-CMKWSNRSSRWC; cysteine pairing not given here) [compound 106]	effectively neutralize	0	0	0.00	21.99	36.56							
CSKWHNRSKRHC (Ac-CSKWHNRSKRHC; cysteine pairing not given here) [compound 105]	effectively neutralize	0	0	10.27	45.04	75.58							
ECGSHAWGRRCK (chain 1 Ac-ECGSHAWGRRCK; chain 2 Ac-ECGSHAWGRRCK; cysteine pairing not given here) [compound 104]	effectively neutralize	0	0	13.44	30.68	63.71							
KCGRWSNRSSCT (Ac-KCGRWSNRSSCT; cysteine pairing not given here) [compound 103]	effectively neutralize	0	0	3.47	28.26	62.73							
QCHTWSNRRSCL (Ac-QCHTWSNRRSCL; cysteine pairing not given here) [compound 108]	effectively neutralize	0	0	15.79	25.99	60.69							
RCHAWSNRKSCV (Ac-RCHAWSNRKSCV; cysteine pairing not given here) [compound 109]	effectively neutralize	0	0	12.46	37.48	75.05							
SCHAWSNRRTCR [peptide 107]	makes it possible to neutralize the effect of the 2C11 antibody	0	0	37.33	80.04	90.48	does not at all modify the procoagulant activity of the FVIII	52	specifically neutralizes the effect of the 2C11 antibody in vivo	19	~100	2	the most effective
